Data reported in patent US20260217719A1, “CDK2 INHIBITORS” (BLUEPRINT MEDICINES CORPORATION, priority 2023, published 2026).
Like-named read-outs stand apart in the source and are kept apart here.

What was measured:
CDK2/Cyclin E1 = molecular target: T1, CDK2/Cyclin E1 (Homo sapiens, UniProt P24941); test: NanoBRET cellular target engagement assay, CDK2/Cyclin E1 in HEK-293 cells; type: cell-based; conditions: HEK-293 cells transfected with CDK2-NanoLuc and CCNE1; tracer K10 0.5 μM; 2 hrs
T1 construct: NV2641; host or cells: HEK-293
Description: (§1) In the assay, HEK-293 cells were cultured to appropriate confluence before being transiently transfected with a mix of CDK2-NanoLuc® Fusion Vector (Promega, NV2781) and CCNE1 expression vector (Promega, NV2641) for CDK2 NanoBRET assays, or CDK1-NanoLuc® Fusion Vector (Promega, NV2701) and CCNB1 expression vector (Promega, NV2601) for CDK1 NanoBRET assay, by using lipid: DNA complexes formed with FuGENE HD transfection agent (Promega, E2311). The transfected cells were cultured overnight in 1% FBS Opti-MEM media to allow the expression to fully occur. Once the expression fully occurred, varying concentrations of the test compounds were added to the cells, before a cell-permeable, fluorescent tracer (tracer K10 from Promega, N2840) was added to achieve final tracer concentration of 0.5 μM. After the addition of Nano-Glo substrate (part of a kit, Promega, N2840) and Extracellular NanoLuc inhibitor (part of a kit, Promega, N2840) 2 hrs after tracer addition, the cellular engagement of the tracer and the competition with testing compounds to the target protein was assessed based on the resulting bioluminescence resonance energy transfer (BRET) signal. BRET ratio was generated by dividing the acceptor emission signal (610 nm) by the donor emission signal (450 nm) for each sample. […] All IC50 curves were calculated using a 4 parameter logistic nonlinear regression model.

CDK1/Cyclin B = molecular target: T2, CDK1/Cyclin B (Homo sapiens, UniProt P06493); test: NanoBRET cellular target engagement assay, CDK1/Cyclin B in HEK-293 cells; type: cell-based; conditions: HEK-293 cells transfected with CDK1-NanoLuc and CCNB1; tracer K10 0.5 μM; 2 hrs
T2 construct: NV2601; host or cells: HEK-293
T2 sequence (P06493 whole entry): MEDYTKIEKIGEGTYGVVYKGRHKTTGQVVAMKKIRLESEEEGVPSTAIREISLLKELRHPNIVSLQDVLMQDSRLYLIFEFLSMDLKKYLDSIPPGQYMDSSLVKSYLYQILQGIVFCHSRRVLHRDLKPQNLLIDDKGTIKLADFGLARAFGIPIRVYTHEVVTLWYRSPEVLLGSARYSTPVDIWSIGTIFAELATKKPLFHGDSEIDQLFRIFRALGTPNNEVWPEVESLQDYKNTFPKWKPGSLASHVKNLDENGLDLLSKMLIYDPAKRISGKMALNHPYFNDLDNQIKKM
T2 sequence (P14635 whole entry partner): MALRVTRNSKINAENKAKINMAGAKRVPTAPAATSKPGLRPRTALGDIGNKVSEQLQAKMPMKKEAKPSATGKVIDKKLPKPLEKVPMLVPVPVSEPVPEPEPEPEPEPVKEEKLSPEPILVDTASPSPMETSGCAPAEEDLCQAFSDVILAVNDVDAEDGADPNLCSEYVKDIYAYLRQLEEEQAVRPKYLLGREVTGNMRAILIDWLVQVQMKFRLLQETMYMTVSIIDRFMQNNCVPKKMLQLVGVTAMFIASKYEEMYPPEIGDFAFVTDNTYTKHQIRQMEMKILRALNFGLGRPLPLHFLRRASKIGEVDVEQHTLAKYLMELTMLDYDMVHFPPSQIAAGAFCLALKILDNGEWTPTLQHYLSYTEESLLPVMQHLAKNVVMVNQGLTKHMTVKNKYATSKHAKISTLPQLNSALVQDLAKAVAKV
Description: as §1

CDK2/Cyclin E = molecular target: T3, CDK2/Cyclin E (Homo sapiens, UniProt P24941); test: Enzymatic phosphorylation activity assay (Caliper mobility shift), CDK2/Cyclin E; type: biochemical
T3 construct: purchased Eurofins 14-475
Description: (§2) Inhibitory effects of the compounds of the disclosure were measured in biochemical assays that measure the enzymatic phosphorylation activity of CDK enzyme in complex of Cyclin proteins phosphorylates 7.5 micromolar fluorescently labelled peptide substrate, 5-FAM-QSPKKG-CONH2, (FL-Peptide 18, Perkin Elmer, 760362) in the presence of adenosine-5′-triphosphate (ATP) and varying concentrations of the test compound in 100 mM 2-[4-(2-hydroxyethyl)piperazin-1-yl] ethanesulfonic acid (HEPES), pH 7.5, 10 mM MgCl2, 0.015% Brij-35, 1 mM dithiothreitol (DTT), 1.0% dimehylsulfoxide (DMSO). […] Reactions proceeded until between 10% to 20% total peptides were phosphorylated at room temperature (25° C.) and were terminated with 35 mM 2,2′,2″,2″-(ethane-1,2-diyldinitrilo)tetraacetic acid (EDTA). Product was detected using the Caliper mobility shift detection method where the phosphorylated peptide (product) and substrate were electrophoretically separated and measured. Percent activity was plotted against log concentration of compound and points to generate an apparent IC50. The following CDK enzymes in complex with different cyclin proteins were used in these assays: • CDK1/Cyclin B1, GST-tag (BPS, 40454), 1.5 nM used in the assay • CDK2/Cyclin E (Eurofins, 14-475), 1.25 nM used in the assays

CDK1/Cyclin B1, GST-tag = molecular target: T4, CDK1/Cyclin B1, GST-tag (Homo sapiens, UniProt P06493); test: Enzymatic phosphorylation activity assay (Caliper mobility shift), CDK1/Cyclin B1; type: biochemical
T4 construct: GST; purchased BPS 40454
T4 sequence (P06493 whole entry): as the sequence (P06493 whole entry) above
T4 sequence (P14635 whole entry partner): as the sequence (P14635 whole entry partner) above
Description: as §2

[1] = read-out: Enzyme CDK2/cyclin E IC50
[2] = read-out: Enzyme CDK1/cyclin B1 IC50

Compound | IC50 (CDK2/Cyclin E1) | IC50 (CDK1/Cyclin B) | also measured
FC(F)Oc1cc(Nc2cnc3ccn(C[C@H]4CCCNC4)c3n2)n[nH]1 [Example 9, (S)—N-(5-(difluoromethoxy)-1H-pyrazol-3-yl)-5-(piperidin-3-ylmethyl)-5H-pyrrolo[2,3-b]pyrazin-3-amine] | 4.9 nM | 1730 nM | 
FC(F)Oc1cc(Nc2cnc3ccn(CC4CCOCC4)c3n2)n[nH]1 [Example 2, N-(5-(difluoromethoxy)-1H-pyrazol-3-yl)-5-((tetrahydro-2H-pyran-4-yl)methyl)-5H-pyrrolo[2,3-b]pyrazin-3-amine] |  |  | IC50 (CDK2/Cyclin E; [1]): 0.71 nM; IC50 (CDK1/Cyclin B1, GST-tag; [2]): 163 nM
C[C@@H](C1CCOCC1)n1ccc2ncc(Nc3cc(OC(F)F)[nH]n3)nc21 [Example 11, (S)—N-(5-(difluoromethoxy)-1H-pyrazol-3-yl)-5-(1-(tetrahydro-2H-pyran-4-yl)ethyl)-5H-pyrrolo[2,3-b]pyrazin-3-amine] | 1.2 nM | 71.7 nM | 
FC(F)Oc1cc(Nc2cnc3ccn(Cc4cccnn4)c3n2)n[nH]1 [Example 13, N-(5-(difluoromethoxy)-1H-pyrazol-3-yl)-5-(pyridazin-3-ylmethyl)-5H-pyrrolo[2,3-b]pyrazin-3-amine] | 7.4 nM | 898 nM | 
CN1CCC[C@@H](Cn2ccc3ncc(Nc4cc(OC(F)F)[nH]n4)nc32)C1 [Example 28, (R)—N-(5-(difluoromethoxy)-1H-pyrazol-3-yl)-5-((1-methylpiperidin-3-yl)methyl)-5H-pyrrolo[2,3-b]pyrazin-3-amine] | 112 nM | 8310 nM | 
c1cncc(Cn2ccc3ncc(Nc4cc([C@@H]5CCOC5)[nH]n4)nc32)c1 (single isomer, unassigned) [Example 17, (S)-5-(pyridin-3-ylmethyl)-N-(5-(tetrahydrofuran-3-yl)-1H-pyrazol-3-yl)-5H-pyrrolo[2,3-b]pyrazin-3-amine or (R)-5-(pyridin-3-ylmethyl)-N-(5-(tetrahydrofuran-3-yl)-1H-pyrazol-3-yl)-5H-pyrrolo[2,3-b]pyrazin-3-amine] | 5.8 nM | 624 nM | 
FC(F)Oc1cc(Nc2cnc3ccn(C[C@@H]4CCCNC4)c3n2)n[nH]1 [Example 27, (R)—N-(5-(difluoromethoxy)-1H-pyrazol-3-yl)-5-(piperidin-3-ylmethyl)-5H-pyrrolo[2,3-b]pyrazin-3-amine] | 16.9 nM | 3580 nM | 
C[C@@H](c1cccnc1)n1ccc2ncc(Nc3cc(OC(F)F)[nH]n3)nc21 [Example 5, (S)—N-(5-(difluoromethoxy)-1H-pyrazol-3-yl)-5-(1-(pyridin-3-yl)ethyl)-5H-pyrrolo[2,3-b]pyrazin-3-amine] |  |  | IC50 (CDK2/Cyclin E; [1]): 0.22 nM; IC50 (CDK1/Cyclin B1, GST-tag; [2]): 224 nM
OC1(Cn2ccc3ncc(Nc4cc(OC(F)F)[nH]n4)nc32)CCOCC1 [Example 14, 4-((3-((5-(difluoromethoxy)-1H-pyrazol-3-yl)amino)-5H-pyrrolo[2,3-b]pyrazin-5-yl)methyl)tetrahydro-2H-pyran-4-ol] | 137 nM | 325 nM | 
c1cnnc(Cn2ccc3ncc(Nc4cc(C5COC5)[nH]n4)nc32)c1 [Example 23, N-(5-(oxetan-3-yl)-1H-pyrazol-3-yl)-5-(pyridazin-3-ylmethyl)-5H-pyrrolo[2,3-b]pyrazin-3-amine] | 110 nM | 1300 nM | 
CN1CCC[C@H](Cn2ccc3ncc(Nc4cc(OC(F)F)[nH]n4)nc32)C1 [Example 10, (S)—N-(5-(difluoromethoxy)-1H-pyrazol-3-yl)-5-((1-methylpiperidin-3-yl)methyl)-5H-pyrrolo[2,3-b]pyrazin-3-amine] | 6 nM | 3210 nM | 
CC(C)c1cc(Nc2cnc3ccn([C@@H](C)c4cccnc4)c3n2)n[nH]1 [Example 3, (S)—N-(5-isopropyl-1H-pyrazol-3-yl)-5-(1-(pyridin-3-yl)ethyl)-5H-pyrrolo[2,3-b]pyrazin-3-amine] |  |  | IC50 (CDK2/Cyclin E; [1]): 0.03 nM; IC50 (CDK1/Cyclin B1, GST-tag; [2]): 40 nM
c1cncc(Cn2ccc3ncc(Nc4cc(C5COC5)[nH]n4)nc32)c1 [Example 16, N-(5-(oxetan-3-yl)-1H-pyrazol-3-yl)-5-(pyridin-3-ylmethyl)-5H-pyrrolo[2,3-b]pyrazin-3-amine] | 10.9 nM | 291 nM | 
(S)-7-chloro-N-(5-isopropyl-1H-pyrazol-3-yl)-5-(1-(pyridin-3-yl)ethyl)-5H-pyrrolo[2,3-b]pyrazin-3-amine [Example 6] |  |  | IC50 (CDK2/Cyclin E; apparent IC50, 1.25 nM enzyme, 7.5 micromolar FL-Peptide 18, 1.0 mM ATP or ATP Km, 25° C.): 2.23 nM; IC50 (CDK1/Cyclin B1, GST-tag; apparent IC50, 1.5 nM enzyme, 7.5 micromolar FL-Peptide 18, 1.0 mM ATP or ATP Km, 25° C.): 869 nM
N#Cc1cc(Nc2cnc3ccn(Cc4cccnc4)c3n2)n[nH]1 [Example 20, 3-((5-(pyridin-3-ylmethyl)-5H-pyrrolo[2,3-b]pyrazin-3-yl)amino)-1H-pyrazole-5-carbonitrile] | 112 nM | 7560 nM | 
C[C@@H](CO)Cn1ccc2ncc(Nc3cc(OC(F)F)[nH]n3)nc21 [Example 15, (R)-3-(3-((5-(difluoromethoxy)-1H-pyrazol-3-yl)amino)-5H-pyrrolo[2,3-b]pyrazin-5-yl)-2-methylpropan-1-ol] | 8.8 nM | 7460 nM | 
FC(F)Oc1cc(Nc2cnc3ccn(CC4CCNCC4)c3n2)n[nH]1 [Example 7, N-(5-(difluoromethoxy)-1H-pyrazol-3-yl)-5-(piperidin-4-ylmethyl)-5H-pyrrolo[2,3-b]pyrazin-3-amine] | 1130 nM | > 10000 nM | 
COc1cc(Nc2cnc3ccn(Cc4cccnc4)c3n2)n[nH]1 [Example 18, N-(5-methoxy-1H-pyrazol-3-yl)-5-(pyridin-3-ylmethyl)-5H-pyrrolo[2,3-b]pyrazin-3-amine] | 10.3 nM | 660 nM | 
O[C@H]1CC[C@H](n2ccc3ncc(Nc4cc(OC(F)F)[nH]n4)nc32)CC1 [Example 12, (1r,4r)-4-(3-((5-(difluoromethoxy)-1H-pyrazol-3-yl)amino)-5H-pyrrolo[2,3-b]pyrazin-5-yl)cyclohexan-1-ol] | 1.1 nM | 347 nM | 
Cc1cc(Nc2cnc3ccn(Cc4cccnc4)c3n2)n[nH]1 [Example 19, N-(5-methyl-1H-pyrazol-3-yl)-5-(pyridin-3-ylmethyl)-5H-pyrrolo[2,3-b]pyrazin-3-amine] | 35.7 nM | 4450 nM | 
Cc1cc(Nc2cnc3ccn(Cc4cccnn4)c3n2)n[nH]1 [Example 24, N-(5-methyl-1H-pyrazol-3-yl)-5-(pyridazin-3-ylmethyl)-5H-pyrrolo[2,3-b]pyrazin-3-amine] | 105 nM | 3820 nM | 
COc1cc(Nc2cnc3ccn(Cc4cccnn4)c3n2)n[nH]1 [Example 22, N-(5-methoxy-1H-pyrazol-3-yl)-5-(pyridazin-3-ylmethyl)-5H-pyrrolo[2,3-b]pyrazin-3-amine] | 6.9 nM | 207 nM | 
c1cnnc(Cn2ccc3ncc(Nc4cc([C@@H]5CCOC5)[nH]n4)nc32)c1 (single isomer, unassigned) [Example 25, (S)-5-(pyridazin-3-ylmethyl)-N-(5-(tetrahydrofuran-3-yl)-1H-pyrazol-3-yl)-5H-pyrrolo[2,3-b]pyrazin-3-amine or (R)-5-(pyridazin-3-ylmethyl)-N-(5-(tetrahydrofuran-3-yl)-1H-pyrazol-3-yl)-5H-pyrrolo[2,3-b]pyrazin-3-amine] | 128 nM | 2780 nM | 
CN1CCC(Cn2ccc3ncc(Nc4cc(OC(F)F)[nH]n4)nc32)CC1 [Example 8, N-(5-(difluoromethoxy)-1H-pyrazol-3-yl)-5-((1-methylpiperidin-4-yl)methyl)-5H-pyrrolo[2,3-b]pyrazin-3-amine] | 162 nM | > 10000 nM | 
COc1cc(Nc2cnc3ccn(C[C@H]4CCCN(C)C4)c3n2)n[nH]1 [Example 21, (S)—N-(5-methoxy-1H-pyrazol-3-yl)-5-((1-methylpiperidin-3-yl)methyl)-5H-pyrrolo[2,3-b]pyrazin-3-amine] | 1630 nM | > 10000 nM | 
